Patent US20250120967A1, “TYROSINE KINASES INHIBITORS AND USES THEREOF” (GREAT NOVEL THERAPEUTICS BIOTECH & MEDICALS CORPORATION, priority 2023, published 2025)

Tests used:
Test in all cases: NCI-60 screen (SRB)
Assay type in all cases: cell-based
786-0 = details: Homo sapiens; 786-0, Renal Cancer
Method: (§1) The human tumor cell lines of the cancer screening panel are grown in RPMI 1640 medium containing 5% fetal bovine serum and 2 mM L-glutamine. For a typical screening experiment, cells are inoculated into 96 well microtiter plates in 100 μL at plating densities ranging from 5,000 to 40,000 cells/well depending on the doubling time of individual cell lines. After cell inoculation, the microtiter plates are incubated at 37° C., 5% CO2, 95% air and 100% relative humidity for 24 h prior to addition of experimental drugs. After 24 h, two plates of each cell line are fixed in situ with TCA, to represent a measurement of the cell population for each cell line at the time of drug addition (Tz). Experimental drugs are solubilized in dimethyl sulfoxide at 400-fold the desired final maximum test concentration and stored frozen prior to use. At the time of drug addition, an aliquot of frozen concentrate is thawed and diluted to twice the desired final maximum test concentration with complete medium containing 50 µg/ml gentamicin. An additional four, 10-fold or M log serial dilutions are made to provide a total of five drug concentrations plus control. Aliquots of 100 μl of these different drug dilutions are added to the appropriate microtiter wells already containing 100 μl of medium, resulting in the required final drug concentrations. Following drug addition, the plates are incubated for an additional 48 h at 37° C., 5% CO2, 95% air, and 100% relative humidity. For adherent cells, the assay is terminated by the addition of cold TCA. Cells are fixed in situ by the gentle addition of 50 μl of cold 50% (w/v) TCA (final concentration, 10% TCA) and incubated for 60 minutes at 4° C. The supernatant is discarded, and the plates are washed five times with tap water and air dried. Sulforhodamine B (SRB) solution (100 l) at 0.4% (w/v) in 1% acetic acid is added to each well, and plates are incubated for 10 minutes at room temperature. After staining, unbound dye is removed by washing five times with 1% acetic acid and the plates are air dried. Bound stain is subsequently solubilized with 10 mM trizma base, and the absorbance is read on an automated plate reader at a wavelength of 515 nm. For suspension cells, the methodology is the same except that the assay is terminated by fixing settled cells at the bottom of the wells by gently adding 50 μl of 80% TCA (final concentration, 16% TCA).

CCRF-CEM = details: Homo sapiens, Leukemia
Method: as §1

HL-60(TB) = details: Homo sapiens, Leukemia
Method: as §1

HOP-92 = details: Homo sapiens; HOP-92, Non-Small Cell Lung Cancer
Method: as §1

K-562 = details: Homo sapiens, K562; K-562, Leukemia
Method: as §1

KM12 = details: Homo sapiens; KM12, Colon Cancer
Method: as §1

LOX IMVI = details: Homo sapiens, Melanoma
Method: as §1

MCF7 = details: Homo sapiens; MCF7, Breast Cancer
Method: as §1

MDA-MB-435 = details: Homo sapiens; MDA-MB-435, Melanoma
Method: as §1

MDA-MB-468 = details: Homo sapiens; MDA-MB-468, Breast Cancer
Method: as §1

MOLT-4 = details: Homo sapiens; MOLT-4, Leukemia
Method: as §1

NCI/ADR-RES = details: Homo sapiens, Ovarian Cancer
Method: as §1

OVCAR-3 = details: Homo sapiens; OVCAR-3, Ovarian Cancer
Method: as §1

OVCAR-4 = details: Homo sapiens; OVCAR-4, Ovarian Cancer
Method: as §1

SF-268 = details: Homo sapiens; SF-268, CNS Cancer
Method: as §1

SK-MEL-28 = details: Homo sapiens; SK-MEL-28, Melanoma
Method: as §1

SK-MEL-2 = details: Homo sapiens; SK-MEL-2, Melanoma
Method: as §1

SN12C = details: Homo sapiens, Renal Cancer
Method: as §1

SNB-19 = details: Homo sapiens; SNB-19, CNS Cancer
Method: as §1

SR = details: Homo sapiens, Leukemia
Method: as §1

SW-620 = details: Homo sapiens; SW-620, Colon Cancer
Method: as §1

TK-10 = details: Homo sapiens; TK-10, Renal Cancer
Method: as §1

U251 = details: Homo sapiens, U-251; U251, CNS Cancer
Method: as §1

UACC-257 = details: Homo sapiens; UACC-257, Melanoma
Method: as §1

UACC-62 = details: Homo sapiens; UACC-62, Melanoma
Method: as §1

| Compound | GI50 (786-0) [nM] | GI50 (CCRF-CEM) [nM] | GI50 (HL-60(TB)) [nM] | GI50 (HOP-92) [nM] | GI50 (K-562) [nM] | GI50 (KM12) [nM] | GI50 (LOX IMVI) [nM] | GI50 (MCF7) [nM] | GI50 (MDA-MB-435) [nM] | GI50 (MDA-MB-468) [nM] | GI50 (MOLT-4) [nM] | GI50 (NCI/ADR-RES) [µM] | GI50 (OVCAR-3) [nM] | GI50 (OVCAR-4) [nM] | GI50 (SF-268) [µM] | GI50 (SK-MEL-28) [nM] | GI50 (SK-MEL-2) [µM] | GI50 (SN12C) [nM] | GI50 (SNB-19) [µM] | GI50 (SR) [nM] | further results |
| --- | --- | --- | --- | --- | --- | --- | --- | --- | --- | --- | --- | --- | --- | --- | --- | --- | --- | --- | --- | --- | --- |
| COc1cc2nccc(Oc3ccc(NC(=O)C4(NC(=O)c5ccc(F)cc5)CC4)cc3F)c2cc1OC [Cbo-02, N-(1-((4-((6,7-diMethoxyquinolin-4-yl)oxy)-3-fluorophenyl)carbamoyl)cyclopropyl)-4-fluorobenzamide] | 1980 | 2240 | 2200 | 1260 | 3050 | 2000 | 1990 | 3260 | 1890 | 1720 | 5040 | 4.9 | 2400 | 2380 | 4.17 | 1610 | 6.15 | 1210 | 3.52 | 3330 | GI50 (SW-620): 1630 nM; GI50 (TK-10): 1830 nM; GI50 (U251): 2880 nM; GI50 (UACC-257): 2830 nM; GI50 (UACC-62): 1840 nM |
| COc1cc2nccc(Oc3ccc(NC(=O)C4(NC(=O)c5ccc(F)cc5)CC4)cc3F)c2cc1Oc1ccc(N)cc1F [Cbo-10] | > 100000 | 436 | 521 | 141 | 1740 | 130 | 1780 | 771 | 737 | 1730 | 777 | > 100 | > 100000 | > 100000 | > 100 | 1810 | > 100 | 111 | > 100 | 345 | GI50 (SW-620): 661 nM; GI50 (TK-10): 455 nM; GI50 (U251): > 100000 nM; GI50 (UACC-257): 1720 nM; GI50 (UACC-62): 915 nM |
| COc1cc2nccc(Oc3ccc(NC(=O)C4(C(=O)Nc5ccc(F)cc5)CC4)cc3F)c2cc1Oc1ccc(N)cc1F [Cbo-23] | 860 | 553 | 596 | < 10 | 130 | < 10 | 306 | 294 | 363 | 1120 | 1230 | 2.04 | 829 | 2580 | 1.35 | 463 | 1.36 | 199 | 3.13 | 93.8 | GI50 (SW-620): 449 nM; GI50 (TK-10): 224 nM; GI50 (U251): 2380 nM; GI50 (UACC-257): 367 nM; GI50 (UACC-62): 112 nM |
